Laboratory results: patent US6737383B1, “Herbicidal oxadiazolidines” (priority 1999, dated 2004)

Experiments:
[1] = test system: giant foxtail; experiment: Test B pre/postemergence giant foxtail; type: in vivo, Setaria faberii
Method in brief: (§1)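 Test chemicals in a non-phytotoxic solvent mixture with surfactant were sprayed preemergence onto planted seeds and postemergence onto plants 2 to 18 cm tall (1- to 4-leaf stage). After twelve to sixteen days in a greenhouse, injury was visually rated against untreated controls from 0 (no effect) to 10 (complete control).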

[2] = test system: purple nutsedge; experiment: Test B pre/postemergence purple nutsedge; type: in vivo, Cyperus rotundus; conditions: Postemergence; for Nutsedge plant response rating: 10 is complete control
Method in brief: as §1

[3] = test system: pigweed; experiment: Test B pre/postemergence pigweed; type: in vivo, Amaranthus retroflexus
Method in brief: as §1

[4] = test system: corn; experiment: Test B pre/postemergence corn; type: in vivo, Zea mays
Method in brief: as §1

[5] = test system: surinam grass; experiment: Test B pre/postemergence surinam grass; type: in vivo, Brachiaria decumbens
Method in brief: as §1

[6] = test system: soybean; experiment: Test B pre/postemergence soybean; type: in vivo, Glycine max
Method in brief: as §1

[7] = test system: duck salad; experiment: Test B flood test duck salad; type: in vivo, Heteranthera limosa
Method in brief: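 Read-out is a visual response score from 0 (no effect) to 10 (complete control), assigned by comparison with untreated controls. Treatment was applied at the 2-leaf stage, and plants stayed in the greenhouse for twelve to sixteen days before scoring.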

[8] = test system: rape; experiment: Test B pre/postemergence rape; type: in vivo, Brassica napus
Method in brief: as §1

[9] = test system: bedstraw; experiment: Test B pre/postemergence bedstraw; type: in vivo, Galium aparine
Method in brief: as §1

[10] = test system: crabgrass; experiment: Test B pre/postemergence crabgrass; type: in vivo, Digitaria sanguinalis
Method in brief: as §1

[11] = test system: velvetleaf; experiment: Test B pre/postemergence velvetleaf; type: in vivo, Abutilon theophrasti
Method in brief: as §1

[12] = test system: cocklebur; experiment: Test B pre/postemergence cocklebur; type: in vivo, Xanthium strumarium
Method in brief: as §1

[13] = test system: wheat; experiment: Test B pre/postemergence wheat; type: in vivo, Triticum aestivum
Method in brief: as §1

[14] = test system: sugar beet; experiment: Test B pre/postemergence sugar beet; type: in vivo, Beta vulgaris
Method in brief: as §1

[15] = test system: morningglory; experiment: Test B pre/postemergence morningglory; type: in vivo, Ipomoea hederacea
Method in brief: as §1

[16] = Postemergence, Rate 62 g/ha, scale of 0 to 10, 0 is no effect, 10 is complete control
[17] = Postemergence, Rate 125 g/ha, scale 0 to 10, 0 is no effect, 10 is complete control
[18] = Postemergence, Rate 500 g/ha, scale of 0 to 10 where 0 is no effect and 10 is complete control
[19] = Preemergence, Rate 62 g/ha, scale 0 to 10 (0 no effect, 10 complete control)
[20] = Preemergence, Rate 125 g/ha, scale 0 to 10, 0 is no effect, 10 is complete control
[21] = Preemergence, Rate 500 g/ha, scale of 0 to 10 where 0 is no effect and 10 is complete control
[22] = Rate 250 g/ha, Postemergence, scale of 0 to 10 where 0 is no effect and 10 is complete control

SMILES: CC(C)N(C(=O)n1oc(=O)n(CCC2OCCCO2)c1=O)c1ccccc1 [Compound 561]
- Giant foxtail plant response rating [1, 16]: 2
- Giant foxtail plant response rating [1, 17]: 4
- Plant response rating, Giant foxtail [1, 18]: 8
- Giant foxtail plant response rating [1, 19]: 0
- Giant foxtail plant response rating [1, 20]: 6
- Giant foxtail plant response rating (0 to 10 scale) ([1]; Preemergence, Rate 250 g/ha): 6
- Giant foxtail plant response rating [1, 21]: 7
- Plant response rating, Giant foxtail [1, 22]: 7
- Nutsedge plant response rating ([2]; Rate 62 g/ha, scale of 0 to 10, 0 is no effect): 0
- Nutsedge plant response rating ([2]; Rate 125 g/ha, scale 0 to 10, 0 is no effect): 2
- Plant response rating, Nutsedge ([2]; Rate 500 g/ha, scale of 0 to 10 where 0 is no effect and 10 is complete control): 4
- Redroot pigweed plant response rating [3, 16]: 0
- Plant response rating, Redroot pigweed [3, 18]: 7
- Redroot pigweed plant response rating [3, 19]: 3
- Redroot pigweed plant response rating [3, 20]: 5
- Redroot pigweed plant response rating (0 to 10 scale) ([3]; Preemergence, Rate 250 g/ha): 9
- Redroot pigweed plant response rating [3, 21]: 9
- Plant response rating, Redroot pigweed [3, 22]: 0
- Corn plant response rating [4, 16]: 0
- Corn plant response rating [4, 17]: 0
- Plant response rating, Corn [4, 18]: 3
- Corn plant response rating [4, 19]: 0
- Corn plant response rating [4, 20]: 0
- Corn plant response rating (0 to 10 scale) ([4]; Preemergence, Rate 250 g/ha): 2
- Corn plant response rating [4, 21]: 5
- Plant response rating, Corn [4, 22]: 0
- B. signalgrass plant response rating [5, 16]: 0
- B. signalgrass plant response rating [5, 17]: 0
- Plant response rating, B. signalgrass [5, 18]: 8
- B. signalgrass plant response rating [5, 19]: 4
- B. signalgrass plant response rating [5, 20]: 4
- B. signalgrass plant response rating (0 to 10 scale, 0 is no effect, 10 is complete control) ([5]; Preemergence, Rate 250 g/ha): 8
- B. signalgrass plant response rating [5, 21]: 9
- Plant response rating, B. signalgrass [5, 22]: 6
- Soybean plant response rating [6, 16]: 2
- Plant response rating, Soybean [6, 18]: 5
- Soybean plant response rating [6, 19]: 0
- Soybean plant response rating [6, 20]: 0
- Soybean plant response rating (0 to 10 scale) ([6]; Preemergence, Rate 250 g/ha): 0
- Soybean plant response rating [6, 21]: 2
- Plant response rating, Soybean [6, 22]: 3
- Plant response rating, Ducksalad (0 to 10 scale, 0 is no effect, 10 is complete control) ([7]; Rate 62 g/ha, flood test species, Pre-emergence, visual evaluation after twelve to sixteen days): 0
- Ducksalad plant response rating (0 to 10 scale, 0 is no effect, 10 is complete control) ([7]; Rate 125 g/ha, under heading Pre-emergence, flood test species, visual evaluation after twelve to sixteen days): 0
- Ducksalad plant response rating ([7]; Rate 250 g/ha, Pre-emergence (flood test species), scale 0 to 10, 0 is no effect, 10 is complete control): 0
- Ducksalad plant response rating ([7]; Rate 500 g/ha, Pre-emergence section of Table B, 0 to 10 scale (0 no effect, 10 complete control)): 0
- Rape plant response rating [8, 16]: 4
- Rape plant response rating [8, 17]: 4
- Plant response rating, Rape [8, 18]: 4
- Rape plant response rating [8, 19]: 2
- Rape plant response rating [8, 20]: 2
- Rape plant response rating (0 to 10 scale) ([8]; Preemergence, Rate 250 g/ha): 5
- Rape plant response rating [8, 21]: 9
- Plant response rating, Rape [8, 22]: 4
- Bedstraw plant response rating [9, 16]: 0
- Plant response rating, Bedstraw [9, 18]: 7
- Bedstraw plant response rating [9, 19]: 0
- Bedstraw plant response rating [9, 20]: 0
- Bedstraw plant response rating (0 to 10 scale) ([9]; Preemergence, Rate 250 g/ha): 2
- Bedstraw plant response rating [9, 21]: 8
- Crabgrass plant response rating [10, 16]: 2
- Crabgrass plant response rating [10, 17]: 3
- Plant response rating, Crabgrass [10, 18]: 9
- Crabgrass plant response rating [10, 19]: 9
- Crabgrass plant response rating [10, 20]: 9
- Crabgrass plant response rating (0 to 10 scale) ([10]; Preemergence, Rate 250 g/ha): 9
- Crabgrass plant response rating [10, 21]: 9
- Plant response rating, Crabgrass [10, 22]: 4
- Velvetleaf plant response rating [11, 16]: 0
- Plant response rating, Velvetleaf [11, 18]: 0
- Velvetleaf plant response rating [11, 19]: 0
- Velvetleaf plant response rating [11, 20]: 0
- Velvetleaf plant response rating (0 to 10 scale) ([11]; Preemergence, Rate 250 g/ha): 0
- Velvetleaf plant response rating [11, 21]: 2
- Plant response rating, Velvetleaf [11, 22]: 0
- Cocklebur plant response rating [12, 16]: 0
- Cocklebur plant response rating [12, 17]: 0
- Plant response rating, Cocklebur [12, 18]: 0
- Cocklebur plant response rating [12, 19]: 0
- Cocklebur plant response rating [12, 20]: 0
- Cocklebur plant response rating (0 to 10 scale) ([12]; Preemergence, Rate 250 g/ha): 0
- Cocklebur plant response rating [12, 21]: 0
- Plant response rating, Cocklebur [12, 22]: 0
- Wheat plant response rating [13, 16]: 0
- Plant response rating, Wheat [13, 18]: 7
- Wheat plant response rating [13, 19]: 0
- Wheat plant response rating [13, 20]: 4
- Wheat plant response rating (0 to 10 scale) ([13]; Preemergence, Rate 250 g/ha): 6
- Wheat plant response rating [13, 21]: 9
- Plant response rating, Wheat [13, 22]: 3
- Sugarbeets plant response rating [14, 16]: 0
- Plant response rating, Sugarbeets [14, 18]: 4
- Sugarbeets plant response rating [14, 19]: 0
- Sugarbeets plant response rating [14, 20]: 0
- Sugarbeets plant response rating (0 to 10 scale) ([14]; Preemergence, Rate 250 g/ha): 2
- Sugarbeets plant response rating [14, 21]: 8
- Morningglory plant response rating [15, 16]: 1
- Morningglory plant response rating [15, 17]: 4
- Plant response rating, Morningglory [15, 18]: 9
- Morningglory plant response rating [15, 19]: 0
- Morningglory plant response rating [15, 20]: 0
- Morningglory plant response rating (0 to 10 scale) ([15]; Preemergence, Rate 250 g/ha): 2
- Morningglory plant response rating [15, 21]: 4
- Plant response rating, Morningglory [15, 22]: 5
